The results in this text go back to patent publication US20230027026A1, “FUSED PYRIMIDINE COMPOUNDS, COMPOSITIONS AND MEDICINAL APPLICATIONS THEREOF” (JUBILANT BIOSYS LIMITED, priority 2019, published 2023).

The target in experiment [1] is T1, EGFR (T790M/L858R) (Homo sapiens, UniProt P00533, L858R/T790M).
T1 construct: GST; purchased Proqinase
Nature of the experiment: EGFR L858R/T790M enzyme inhibition assay (HTRF). It is filed as biochemical. As to conditions: 5 μM ATP, 60 min, read-out: EGFR_L858R T790M_IC50_nM. The protocol:
Example 2: EGFR L858R & Del19/T790M Assay Protocol (to Find the IC50 for the Compounds Using HTRF Method)
Reagents for Enzyme Assay:
• 1. Enzyme Assay Buffer: 60 mM HEPES (pH 7.4), 50 mM NaCl, 20 mM MgCl2, 5 mM MnCl2, filtered using 0.2 μm pore size, stored at 4° C. • Supplements (added fresh to the enzyme buffer): 1M DTT stock was made, 5% BSA stock and 0.1M Na3OV4 stored at 4° C. Enzyme assay buffer 50 mL, 1 M DTT 100 μL, 5% BSA 500 μL, 0.1 M Na3OV4 50 μL. • 2. GST-hEGFR (L858R), active: EGFR (T790M/L858R), active (Proqinase), 3.6 μM stock; 2.5 nM in final assay. • 3. Gastrin Precusor-Biotinylated: Gastrin precursor (Tyr87) biotinylated peptide, EEAY*GWM, Cell Signaling Tech 1310, Lot-7, Want final 0.5 μM in assay. • 4. ATP: 10 mM stock in 100 μL Enzyme assay buffer pH 7.4 prepared freshly, want 5 μM in final assay. • 5. Test compounds: Powders were dissolved in 100% DMSO and made up to a final stock concentration of 10 mM (volume in μL to add for 10 mM=mg powder X 10^5/MW). Final compound concentration in the assay plate started at 10 μM.
• 1. HTRF buffer: 50 mM Tris —HCl, pH-7.5, 100 mM NaCl, 0.1% BSA, 0.05% Tween20, 0.5 mM EDTA, filtered using 0.2 μm pore size, stored at 4° C. • Phycolink® Streptavidin-Allophycocyanin (SA-APC) Prozyme, Cat. #PJ25S, Lot #896 085, 2.06 mg/mL, APC concentration is 11.6 μM, streptavidin concentration is 15.5 μM. Want 12 nM final in assay (based on streptavidin concentration). • 2. (Europium) Eu-W1024 Anti-phosphotyrosine (PT-66) Antibody: Perkin Elmer (Product Number: AD0068), monoclonal IgG1 that recognizes phosphotyrosine peptide 100 μg/ml stock. Want 0.1 nM final in assay.
• 1. The compound dilution was made by TECAN as per the above scheme. • 2. 16 μL of diluted compound was added to the assay plate by using TECAN. • 3. 10 μL of enzyme mix was added to each well except mins. • 4. 20 μL of substrate and ATP mix were added into each well of the assay plate, manually. • 5. The plate was incubated on a laboratory shaker at room temperature for 60 min. • 6. Meanwhile, the HTRF mix was prepared and 75 μL was added to the HTRF plate. • 7. When the incubation was over, 10 μL of the reaction mixture was transferred to the HTRF assay plate and incubated on a laboratory shaker for 30 min at room temperature. • 8. The reading was taken in Pherastar (ext 337 nm, Em 665 & 620 nm). • 9. The results were analyzed using Graphpad prism after calculation of the z factor, signal window and % inhibition to get the IC50.
In general terms: Time-resolved FRET reads energy transfer from a long-lived donor to a nearby acceptor.

Experiment [2] has as its system H1975 cells (L858R_T790M mutant). Nature of the experiment: H1975 proliferation assay. Format: cell-based. As to conditions: Homo sapiens, NCI-H1975; read-out: Proliferation_Assay H1975 cells-EC50_nM L858R_T790M_mutant.
The subject of experiment [3] is A431 cells. Briefly: Cellular proliferation (Alamar Blue) assay, A431. Format: cell-based. To be noted: Homo sapiens, A-431; A431 cells, 72 hr, Alamar Blue; read-out: A431 IC50. The essentials:
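Seventy-two-hour growth assay with 3-fold compound titration (final 10–0.0005 μM) and Alamar Blue fluorescence end point, ex 540/em 590 nm.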
For orientation: Resazurin is reduced to fluorescent resorufin, in cell work by metabolically active cells.

Experiment [4] has as its target EGFR (A767_dupASV) expressing Ba/F3 stable cell line (Homo sapiens, UniProt P00533, DUP767-769, cells depend on it). Briefly: Cellular proliferation (Alamar Blue) assay, EGFR A767_dupASV Ba/F3. It is filed as cell-based. As to conditions: EGFR A767_dupASV Ba/F3, 72 hr, read-out: A767 IC50. The essentials:
(§1)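 Fluorescence read-out (ex 540/em 590 nm) after 3 h Alamar Blue incubation, following 72 h compound exposure at 37 °C, 5% CO2. Final compound range 10–0.0005 μM, 3-fold steps; Ba/F3 cells plated 15,000/well in RPMI + 10% FBS overnight beforehand.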

Experiment [5] addresses EGFR(D770_N771insSVD) expressing Ba/F3 stable cell line (Homo sapiens, UniProt P00533, DUP768-770, cells depend on it). Nature of the experiment: Cellular proliferation (Alamar Blue) assay, EGFR D770_N771insSVD Ba/F3. To be noted: EGFR D770_N771insSVD Ba/F3, 72 hr, read-out: D770 IC50. Format: cell-based. In short, it runs like this: as §1

The structures appear in SMILES notation. Bounds are passed on as bounds.

Chain of EGFR (A767_dupASV) expressing Ba/F3 stable cell line (P00533 with tags, fused parts or gaps DUP767-769): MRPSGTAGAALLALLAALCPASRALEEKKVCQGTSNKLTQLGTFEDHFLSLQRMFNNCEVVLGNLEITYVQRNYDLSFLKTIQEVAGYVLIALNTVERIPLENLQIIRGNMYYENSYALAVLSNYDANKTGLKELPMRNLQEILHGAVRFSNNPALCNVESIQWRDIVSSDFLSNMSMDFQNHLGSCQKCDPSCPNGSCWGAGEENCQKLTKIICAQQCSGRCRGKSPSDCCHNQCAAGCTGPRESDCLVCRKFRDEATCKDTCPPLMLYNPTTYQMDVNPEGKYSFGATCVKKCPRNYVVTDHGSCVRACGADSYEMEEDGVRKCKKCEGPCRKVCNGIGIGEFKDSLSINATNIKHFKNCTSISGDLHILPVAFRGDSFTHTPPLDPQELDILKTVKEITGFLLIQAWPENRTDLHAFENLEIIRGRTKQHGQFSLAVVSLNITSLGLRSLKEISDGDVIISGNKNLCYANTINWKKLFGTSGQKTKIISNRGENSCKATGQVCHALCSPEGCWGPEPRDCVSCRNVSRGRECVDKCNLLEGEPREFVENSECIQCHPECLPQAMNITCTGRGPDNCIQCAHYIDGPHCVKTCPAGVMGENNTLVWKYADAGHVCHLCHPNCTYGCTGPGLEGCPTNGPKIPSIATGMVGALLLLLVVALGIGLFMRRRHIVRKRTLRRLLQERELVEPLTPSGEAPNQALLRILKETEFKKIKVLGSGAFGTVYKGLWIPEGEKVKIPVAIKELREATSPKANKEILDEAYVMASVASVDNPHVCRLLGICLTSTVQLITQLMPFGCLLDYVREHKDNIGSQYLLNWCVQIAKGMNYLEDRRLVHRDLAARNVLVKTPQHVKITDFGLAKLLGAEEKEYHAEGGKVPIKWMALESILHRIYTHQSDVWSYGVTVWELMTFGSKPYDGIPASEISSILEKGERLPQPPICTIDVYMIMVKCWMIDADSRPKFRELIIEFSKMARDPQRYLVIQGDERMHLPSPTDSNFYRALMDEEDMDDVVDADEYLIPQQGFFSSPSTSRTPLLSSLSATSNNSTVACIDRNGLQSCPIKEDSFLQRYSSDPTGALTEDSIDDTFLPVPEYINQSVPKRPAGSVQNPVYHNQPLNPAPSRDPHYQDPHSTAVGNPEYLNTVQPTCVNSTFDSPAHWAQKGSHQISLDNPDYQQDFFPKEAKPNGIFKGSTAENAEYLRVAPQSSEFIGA
T1 sequence (P00533 25-1210 T790M/L858R): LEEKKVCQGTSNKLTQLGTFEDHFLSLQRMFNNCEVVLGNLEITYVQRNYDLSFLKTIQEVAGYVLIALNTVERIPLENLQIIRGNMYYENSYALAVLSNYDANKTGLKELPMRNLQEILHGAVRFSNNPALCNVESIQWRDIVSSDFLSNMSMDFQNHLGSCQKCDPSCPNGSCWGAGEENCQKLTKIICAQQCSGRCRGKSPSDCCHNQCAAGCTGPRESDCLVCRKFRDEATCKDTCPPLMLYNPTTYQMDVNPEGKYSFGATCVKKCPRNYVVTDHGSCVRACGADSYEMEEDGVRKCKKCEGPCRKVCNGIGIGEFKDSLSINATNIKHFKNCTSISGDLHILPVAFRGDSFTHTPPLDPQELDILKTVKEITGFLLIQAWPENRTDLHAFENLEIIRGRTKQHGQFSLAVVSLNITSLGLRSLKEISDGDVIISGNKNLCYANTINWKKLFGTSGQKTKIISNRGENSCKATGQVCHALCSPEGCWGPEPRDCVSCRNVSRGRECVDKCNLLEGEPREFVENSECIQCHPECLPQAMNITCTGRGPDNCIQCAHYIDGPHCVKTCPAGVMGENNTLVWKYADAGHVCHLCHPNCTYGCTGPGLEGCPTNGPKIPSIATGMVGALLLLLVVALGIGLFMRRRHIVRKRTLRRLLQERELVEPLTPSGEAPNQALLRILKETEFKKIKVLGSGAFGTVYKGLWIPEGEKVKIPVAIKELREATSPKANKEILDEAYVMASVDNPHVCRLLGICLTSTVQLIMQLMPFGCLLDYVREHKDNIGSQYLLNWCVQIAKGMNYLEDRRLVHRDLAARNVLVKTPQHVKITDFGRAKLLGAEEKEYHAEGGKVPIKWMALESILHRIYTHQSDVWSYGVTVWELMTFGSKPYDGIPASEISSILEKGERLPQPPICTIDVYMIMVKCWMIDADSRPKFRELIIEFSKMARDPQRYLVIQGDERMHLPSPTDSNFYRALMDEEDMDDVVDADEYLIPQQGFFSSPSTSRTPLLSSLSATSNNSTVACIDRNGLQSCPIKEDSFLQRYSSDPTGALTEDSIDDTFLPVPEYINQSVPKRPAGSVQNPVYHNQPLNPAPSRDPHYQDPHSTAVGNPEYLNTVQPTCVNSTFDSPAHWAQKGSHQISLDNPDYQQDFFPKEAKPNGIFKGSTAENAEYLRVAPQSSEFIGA
Chain of EGFR(D770_N771insSVD) expressing Ba/F3 stable cell line (P00533 with tags, fused parts or gaps DUP768-770): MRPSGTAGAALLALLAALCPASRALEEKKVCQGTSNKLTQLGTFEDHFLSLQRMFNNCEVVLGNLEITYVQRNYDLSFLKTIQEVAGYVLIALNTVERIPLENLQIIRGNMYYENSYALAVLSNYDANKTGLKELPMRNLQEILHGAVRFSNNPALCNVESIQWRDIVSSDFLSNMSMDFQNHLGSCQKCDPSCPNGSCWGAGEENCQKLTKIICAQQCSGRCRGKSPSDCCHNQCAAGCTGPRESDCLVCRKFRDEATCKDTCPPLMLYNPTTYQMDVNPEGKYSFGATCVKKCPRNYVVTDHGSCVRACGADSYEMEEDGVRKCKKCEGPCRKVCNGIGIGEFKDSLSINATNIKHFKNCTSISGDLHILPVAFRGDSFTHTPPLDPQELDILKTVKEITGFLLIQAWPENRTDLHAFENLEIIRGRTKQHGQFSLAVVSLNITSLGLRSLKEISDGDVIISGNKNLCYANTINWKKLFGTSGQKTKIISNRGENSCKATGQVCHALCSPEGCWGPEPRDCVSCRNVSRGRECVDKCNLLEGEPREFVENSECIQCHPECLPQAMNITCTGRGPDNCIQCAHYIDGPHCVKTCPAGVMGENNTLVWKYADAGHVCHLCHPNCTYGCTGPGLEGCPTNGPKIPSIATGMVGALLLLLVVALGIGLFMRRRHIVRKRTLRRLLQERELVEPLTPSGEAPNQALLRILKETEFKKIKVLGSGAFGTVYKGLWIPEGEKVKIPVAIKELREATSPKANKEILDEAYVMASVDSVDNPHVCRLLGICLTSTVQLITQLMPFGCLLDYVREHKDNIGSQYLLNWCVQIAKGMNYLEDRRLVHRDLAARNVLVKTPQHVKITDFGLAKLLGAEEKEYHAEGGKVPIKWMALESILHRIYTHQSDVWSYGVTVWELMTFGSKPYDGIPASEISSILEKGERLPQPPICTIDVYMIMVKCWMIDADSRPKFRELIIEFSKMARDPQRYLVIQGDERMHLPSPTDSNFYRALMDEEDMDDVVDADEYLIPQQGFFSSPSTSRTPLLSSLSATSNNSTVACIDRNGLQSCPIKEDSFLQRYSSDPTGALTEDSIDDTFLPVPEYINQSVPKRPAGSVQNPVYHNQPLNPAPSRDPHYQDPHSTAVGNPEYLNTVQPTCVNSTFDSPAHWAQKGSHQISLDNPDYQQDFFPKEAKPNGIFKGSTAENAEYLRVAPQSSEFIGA

`Cc1cc(Nc2ncc3c(n2)N(C2CCCC(NC(=O)/C=C/CN(C)C)C2)C(=O)N(Cc2ccccc2)C3)sn1` (centres unmarked) [Compound 32, (E)-N-(3-(3-benzyl-7-((3-methylisothiazol-5-yl)amino)-2-oxo-3,4-dihydropyrimido[4,5-d]pyrimidin-1(2H)-yl)cyclohexyl)-4-(dimethylamino)but-2-enamide]: the IC50 in experiment [1] was 82 nM; in experiment [3] it was 1370 nM. The EC50 in experiment [2] stood at 176 nM. For the same compound, the GI50 in experiment [4] turned out to be 2910 nM; in experiment [5], 2880 nM.

On to `C=CC(=O)N1CCC(N2C(=O)N(Cc3ccccc3)Cc3cnc(Nc4cn(C)nc4Cl)nc32)C1` (racemic) [Compound 37, 1-(1-acryloylpyrrolidin-3-yl)-3-benzyl-7-((3-chloro-1-methyl-1H-pyrazol-4-yl)amino)-3,4-dihydropyrimido[4,5-d]pyrimidin-2(1H)-one], for which the IC50 in experiment [1] was 167 nM; in experiment [3] it was at least 10000 nM. Besides, the EC50 in experiment [2] stood at 372 nM. Further, the GI50 in experiment [4] and in experiment [5] was at least 10000 nM in each case.

On to `C=CS(=O)(=O)Nc1cccc(N2C(=O)N(Cc3ccccc3)Cc3cnc(Nc4cnn(C)c4)nc32)c1` [Compound 47, N-(3-(3-benzyl-7-((1-methyl-1H-pyrazol-4-yl)amino)-2-oxo-3,4-dihydropyrimido[4,5-d]pyrimidin-1(2H)-yl)phenyl)ethenesulfonamide], for which the IC50 in experiment [1] was 0.9 nM; in experiment [3], at least 10000 nM. For the same compound, the EC50 in experiment [2] was 819 nM. Moreover, the GI50 was 2260 nM in experiment [4] and at least 10000 nM in experiment [5].

Consider `C=CC(=O)NC1CCCC(N2C(=O)N(Cc3ccccc3)Cc3cnc(Nc4cnn(C)c4)nc32)C1` (centres unmarked) [Compound 24, N-(3-(3-benzyl-7-((1-methyl-1H-pyrazol-4-yl)amino)-2-oxo-3,4-dihydropyrimido[4,5-d]pyrimidin-1(2H)-yl)cyclohexyl)acrylamide], for which the IC50 in experiment [1] was 53 nM; in experiment [3], 8340 nM. The EC50 in experiment [2] was found to be 71 nM. For the same compound, the GI50 was found to be 356 nM in experiment [4] and 340 nM in experiment [5].

Turning to `CN(C)C/C=C/C(=O)N(C)c1cccc(N2C(=O)N(Cc3ccccc3)Cc3cnc(Nc4cnn(C)c4)nc32)c1` [Compound 21, (E)-N-(3-(3-benzyl-7-((1-methyl-1H-pyrazol-4-yl)amino)-2-oxo-3,4-dihydropyrimido[4,5-d]pyrimidin-1(2H)-yl)phenyl)-4-(dimethylamino)-N-methylbut-2-enamide], the results for the IC50 in experiment [1] and in experiment [3] were 45 nM and 2080 nM, respectively. Also, in experiment [2], the EC50 was 83.9 nM. In addition, the GI50 stood at 2810 nM in experiment [4] and 3350 nM in experiment [5].

For the compound `CN(C)C/C=C/C(=O)Nc1cccc(N2C(=O)N(Cc3ccccc3)Cc3cnc(Nc4cn(C)nn4)nc32)c1` [Compound 26, (E)-N-(3-(3-benzyl-7-((1-methyl-1H-1,2,3-triazol-4-yl)amino)-2-oxo-3,4-dihydropyrimido[4,5-d]pyrimidin-1(2H)-yl)phenyl)-4-(dimethylamino)but-2-enamide], the IC50 in experiment [1] turned out to be 5 nM; in experiment [3] it was 3080 nM. Further, the EC50 in experiment [2] turned out to be 222 nM. The GI50 in experiment [4] was found to be 3330 nM; in experiment [5] it was 3690 nM.

On to `CN(C)C/C=C/C(=O)Nc1cccc(N2C(=O)N(Cc3ccccc3)Cc3cnc(Nc4ccc5c(cnn5C)c4)nc32)c1` [Compound 43, (E)-N-(3-(3-benzyl-7-((1-methyl-1H-indazol-5-yl)amino)-2-oxo-3,4-dihydropyrimido[4,5-d]pyrimidin-1(2H)-yl)phenyl)-4-(dimethylamino)but-2-enamide], for which the figures for the IC50 in experiment [1] and in experiment [3] were 3.8 nM and 632 nM, respectively. In experiment [2], the EC50 stood at 6.3 nM. Further, the GI50 is 103 nM in experiment [4] and 108 nM in experiment [5].

As to `C=CC(=O)Nc1cccc(N2C(=O)N(Cc3ccc(F)cc3)Cc3cnc(Nc4cnn(C)c4)nc32)c1` [Compound 3, N-(3-(3-(4-fluorobenzyl)-7-((1-methyl-1H-pyrazol-4-yl)amino)-2-oxo-3,4-dihydropyrimido[4,5-d]pyrimidin-1(2H)-yl)phenyl)acrylamide], the results for the IC50 in experiment [1] and in experiment [3] were 13 nM and 676 nM, respectively. Also, the EC50 in experiment [2] came out at 40.9 nM. In addition, the figures for the GI50 in experiment [4] and in experiment [5] were 184 nM and 131 nM, respectively.

For `CN(C)C/C=C/C(=O)NC1CCCC(N2C(=O)N(Cc3ccccc3)Cc3cnc(Nc4cnn(C)c4)nc32)C1` (centres unmarked) [Compound 31, (E)-N-(3-(3-benzyl-7-((1-methyl-1H-pyrazol-4-yl)amino)-2-oxo-3,4-dihydropyrimido[4,5-d]pyrimidin-1(2H)-yl)cyclohexyl)-4-(dimethylamino)but-2-enamide], the IC50 turned out to be 281 nM in experiment [1] and 1970 nM in experiment [3]. For the same compound, in experiment [2], the EC50 is 299 nM. The figures for the GI50 in experiment [4] and in experiment [5] were 3320 nM and 3480 nM, respectively.

As for `CN(C)C/C=C/C(=O)Nc1cccc(N2C(=O)N(Cc3ccccc3)Cc3cnc(Nc4cnn(CCO)c4)nc32)c1` [Compound 14, (E)-N-(3-(3-benzyl-7-((1-(2-hydroxyethyl)-1H-pyrazol-4-yl)amino)-2-oxo-3,4-dihydropyrimido[4,5-d]pyrimidin-1(2H)-yl)phenyl)-4-(dimethylamino)but-2-enamide], the IC50 in experiment [1] was 5 nM; in experiment [3] it was 6080 nM. The EC50 in experiment [2] was 37.8 nM. Moreover, the GI50 in experiment [4] is 2570 nM; in experiment [5] it was 2920 nM.

In the case of `Cc1nn(CC(F)(F)F)cc1Nc1ncc2c(n1)N(c1cccc(NC(=O)/C=C/CN(C)C)c1)C(=O)N(Cc1ccccc1)C2` [Compound 8, (E)-N-(3-(3-benzyl-7-((3-methyl-1-(2,2,2-trifluoroethyl)-1H-pyrazol-4-yl)amino)-2-oxo-3,4-dihydropyrimido[4,5-d]pyrimidin-1(2H)-yl)phenyl)-4-(dimethylamino)but-2-enamide], the values for the IC50 in experiment [1] and in experiment [3] were 9 nM and 580 nM, respectively. Further, in experiment [2], the EC50 worked out at 9.2 nM. The GI50 in experiment [4] was found to be 103 nM; in experiment [5] it was 108 nM.

In the case of `C=CC(=O)NC1CCCC(N2C(=O)N(Cc3ccccc3)Cc3cnc(Nc4cn(C)nc4Cl)nc32)C1` (centres unmarked) [Compound 40, N-(3-(3-benzyl-7-((3-chloro-1-methyl-1H-pyrazol-4-yl)amino)-2-oxo-3,4-dihydropyrimido[4,5-d]pyrimidin-1(2H)-yl)cyclohexyl)acrylamide], the IC50 in experiment [1] was 98 nM; in experiment [3], at least 10000 nM. Besides, the EC50 in experiment [2] turned out to be 323 nM. For the same compound, the GI50 in experiment [4] came out at 1700 nM; in experiment [5] it was 1870 nM.

`Cc1csc(Nc2ncc3c(n2)N(c2cccc(NC(=O)/C=C/CN(C)C)c2)C(=O)N(Cc2ccccc2)C3)n1` [Compound 48, (E)-N-(3-(3-benzyl-7-((4-methylthiazol-2-yl)amino)-2-oxo-3,4-dihydropyrimido[4,5-d]pyrimidin-1(2H)-yl)phenyl)-4-(dimethylamino)but-2-enamide]: the figures for the IC50 in experiment [1] and in experiment [3] were 3.5 nM and 148 nM, respectively. Moreover, the EC50 in experiment [2] stood at 133 nM. The GI50 in experiment [4] came to 456 nM; in experiment [5], 361 nM.
